Reference: US20240417412A1, “HETEROCYCLIC COMPOUNDS AND METHODS OF USE” (AMGEN INC., priority 2022, published 2024)

How the values were obtained:
KRAS G12D [1] = molecular target: KRAS G12D (Homo sapiens, UniProt P01116, C118A/G12D); experiment: KRAS G12D Coupled Nucleotide Exchange Assay; format: biochemical; settings: GDP-bound KRAS G12D/C118A, 2 hours pre-incubation, SOS-mediated nucleotide exchange, AlphaScreen
Experimental: The assay plates were then read on a PerkinElmer EnVision Multilabel Reader, using AlphaScreen® technology, and data were analyzed using a 4-parameter logistic model to calculate IC50 values.

KRAS G12D [2] = molecular target: KRAS G12D (Homo sapiens, UniProt P01116, G12D); experiment: KRAS G12D TR-FRET Assay; settings: His-tagged KRAS G12D, biotinylated KRPep-2d, read-out: KRAS G12D Binding IC50
KRAS G12D (Homo sapiens, UniProt P01116, G12D), sequence (P01116 1-188 isoform P01116-2 G12D): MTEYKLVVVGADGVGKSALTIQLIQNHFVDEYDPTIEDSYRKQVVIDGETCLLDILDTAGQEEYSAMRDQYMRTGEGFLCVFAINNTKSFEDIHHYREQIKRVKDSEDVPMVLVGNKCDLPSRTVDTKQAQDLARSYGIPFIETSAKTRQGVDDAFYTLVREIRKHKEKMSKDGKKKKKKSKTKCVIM
Experimental: The plate was incubated for 30 minutes at room temperature. Biotinylated KRPep-2d substrate (Amgen) was diluted to 20 nM in Assay Buffer and 2 uL was added to all wells and incubated for 1 hour at room temperature. Detection Reagent (0.4 nM LANCE Eu-W1024 Anti-6×His (Perkin Elmer AD0401), 5 nM streptavidin-d2 (Cisbio 610SADLA)) was prepared in Assay Buffer, then 4 μL was added to the plate and incubated for 1 hour at room temperature.

KRAS G12D (Homo sapiens, UniProt P01116, C118A/G12D), sequence (P01116 1-169 isoform P01116-2 G12D/C118A): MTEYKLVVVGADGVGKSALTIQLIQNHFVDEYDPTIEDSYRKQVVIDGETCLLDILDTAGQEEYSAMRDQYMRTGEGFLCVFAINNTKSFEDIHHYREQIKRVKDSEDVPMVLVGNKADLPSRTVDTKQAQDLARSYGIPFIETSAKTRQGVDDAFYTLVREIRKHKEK

IC50 (KRAS G12D [1])	IC50 (KRAS G12D [2])	Compound
3 nM	2 nM	CCc1c(F)ccc2cc(O)cc(-c3ncc4c(N5CC(O)CC6(CC6)C5)nc(OC[C@@]56CCCN5C[C@H](F)C6)nc4c3F)c12 (single isomer, unassigned) [Example 4]
8 nM	3 nM	CCc1c(F)ccc2cc(O)cc(-c3ncc4c(N5CCCC6(CNC(=O)C6)C5)nc(OC[C@@]56CCCN5C[C@H](F)C6)nc4c3F)c12 (single isomer, unassigned) [Example 7]
65 nM	59 nM	CCc1c(F)ccc2cc(O)cc(-c3ncc4c(N5CCCC6(CNC6=O)C5)nc(OC[C@@]56CCCN5C[C@H](F)C6)nc4c3F)c12 (single isomer, unassigned) [Example 46]
54 nM	36 nM	CCc1c(F)ccc2cc(O)cc(-c3ncc4c(N5CCCC6(CCC6O)C5)nc(OC[C@@]56CCCN5C[C@H](F)C6)nc4c3F)c12 (single isomer, unassigned) [Example 48]
42 nM	68 nM	CCc1c(F)ccc2cc(O)cc(-c3ncc4c(N5CCCC6(CCO6)C5)nc(OC[C@@]56CCCN5C[C@H](F)C6)nc4c3C)c12 (single isomer, unassigned) [Example 62]
129 nM	305 nM	CCc1c(F)ccc2cccc(-c3ncc4c(N5CCCC6(CNC(=O)O6)C5)nc(OC[C@@]56CCCN5C[C@H](F)C6)nc4c3F)c12 (single isomer, unassigned) [Example 64]
42 nM	74 nM	CCc1c(F)ccc2cc(O)cc(-c3ncc4c(N5CCCC6(CCC(=O)O6)C5)nc(OC[C@@]56CCCN5C[C@H](F)C6)nc4c3F)c12 (single isomer, unassigned) [Example 65]
50 nM	56 nM	CCc1c(F)ccc2cc(O)cc(-c3ncc4c(N5CCOCC6(COC6)C5)nc(OCC56CCCN5C[C@H](F)C6)nc4c3F)c12 (stereo in doubt) [Example 50, 5-Ethyl-6-fluoro-4-(8-fluoro-2-(((2R,7aS)-2-fluorotetrahydro-1H-pyrrolizin-7a(5H)-yl)methoxy)-4-(2,6-dioxa-9-azaspiro[3.6]decan-9-yl)pyrido[4,3-d]pyrimidin-7-yl)naphthalen-2-ol]
13 nM	17 nM	CCc1c(F)ccc2cc(O)cc(-c3ncc4c(N5CCC6(CCCS6(=O)=O)C5)nc(OCC56CCCN5C[C@H](F)C6)nc4c3F)c12 (stereo in doubt) [Example 51, 7-(7-(8-Ethyl-7-fluoro-3-hydroxynaphthalen-1-yl)-8-fluoro-2-(((2R,7aS)-2-fluorotetrahydro-1H-pyrrolizin-7a(5H)-yl)methoxy)pyrido[4,3-d]pyrimidin-4-yl)-1-thia-7-azaspiro[4.4]nonane 1,1-dioxide]
17 nM	40 nM	CCc1c(F)ccc2cc(O)cc(-c3ncc4c(N5CCCC6(CCN6)C5)nc(OC[C@@]56CCCN5C[C@H](F)C6)nc4c3F)c12 (stereo partly drawn) [Example 5, 5-Ethyl-6-fluoro-4-(8-fluoro-2-(((2R,7aS)-2-fluorotetrahydro-1H-pyrrolizin-7a(5H)-yl)methoxy)-4-(1,6-diazaspiro[3.5]nonan-6-yl)pyrido[4,3-d]pyrimidin-7-yl)naphthalen-2-ol]
3 nM	2 nM	CCc1c(F)ccc2cc(O)cc(-c3ncc4c(N5CCCC6(COC6)C5)nc(OC[C@@]56CCCN5C[C@H](F)C6)nc4c3F)c12 [Example 20, 5-Ethyl-6-fluoro-4-(8-fluoro-2-(((2R,7aS)-2-fluorotetrahydro-1H-pyrrolizin-7a(5H)-yl)methoxy)-4-(2-oxa-6-azaspiro[3.5]nonan-6-yl)pyrido[4,3-d]pyrimidin-7-yl)naphthalen-2-ol]
28 nM	27 nM	CCc1c(F)ccc2cc(O)cc(-c3ncc4c(N5CCOC6(CCC6)C5)nc(OC[C@@]56CCCN5C[C@H](F)C6)nc4c3F)c12 [Example 31, 5-Ethyl-6-fluoro-4-(8-fluoro-2-(((2R,7aS)-2-fluorotetrahydro-1H-pyrrolizin-7a(5H)-yl)methoxy)-4-(5-oxa-8-azaspiro[3.5]nonan-8-yl)pyrido[4,3-d]pyrimidin-7-yl)naphthalen-2-ol]
